According to PMC9838390, “Discovery and biosynthesis of karnamicins as angiotensin converting enzyme inhibitors” (Nature Communications, 2023):
Values joined by “and” are separate entries in the source; they are usually repeats but may differ in a detail not shown here. Equal entries are not always repeated.

How the values were obtained:
Type in all cases: biochemical, L. rhizosphaerae NEAU-A2
KnmB2 [1] = test: Hydrogen peroxide formation assay of KnmB2 and variants
Method: (§1) Hydrogen peroxide formation assay and NADPH oxidation
(§2) The hydrogen peroxide formed from KnmB1, KnmB2 and their variants were measured using the Hydrogen Peroxide Assay Kit (Beyotime Industrial Co. Ltd, Shanghai, China)4-5. 5–100 µL of enzyme reaction mixture was added to 100 µL of working reagent (S0038-1). The mixture was incubated for 30 min at 25 °C, at which time the absorbance at 560 nm was measured by NanoDrop 2000c (Fisher Scientific). […]
(§3) Spectral data for new compounds […]
Supplementary Figure 131. H2O2 generation and NADPH oxidation for KnmB2, KnmB1 and their variants. (a) Hydrogen peroxide formation of KnmB2 and variants. […]
(1 picture or pasted object on this page, not shown here) […]
(§4) H2O2 generation for KnmB2 and variants in the presence 24 or 32. Reaction conditions (h-j) for KnmB2 and their variants: 50 mM Tris-HCl buffer (pH 7.5), 0.15 mM NADPH, 2 μM KnmB2 or variants, or 0.1 mM substrate 24/32. Values are the means ± SD of n = 3 independent experiments, except for KnmB2+24 (T = 40 min), KnmB2-N219D+24 (T = 4 min), KnmB2-Y215F+24 (T= 1 min and 3 min) in i and j, and KnmB2+32 (T= 8 min) in j (n = 2). Source data are provided as a Source Data file. […]

KnmB2 [2] = test: NADPH oxidation of KnmB2 and variants (340 nm)
Method: as §1
as §2, with “Scientific). The level of H2O2 was calculated according to a standard concentration curve from standard” for “Scientific).”
(§5) NADPH detection was carried out in the cuvette by NanoDrop 2000c (Fisher Scientific). NADPH signal at 340 nm was monitored in time using 6220 M–1 cm–1 as […]
as §3
Reaction conditions: 50 mM Tris-HCl buffer (pH 7.5),
0.15 mM NADPH, and 2 μM KnmB1 or KnmB2. […]
as §4, with “μM KnmB1 or variants, or 0.1 mM substrate 24/32/36. (h) NADPH oxidation of KnmB2 and variants. (i) NADPH oxidation of KnmB2 and variants in the presence 24 or 32. (j) H2O2” for “H2O2”

KnmB1 = test: NADPH oxidation of KnmB1 and variants (340 nm); settings: KnmB1 + compound
Method: Hydrogen peroxide formation assay and NADPH oxidation […]
as §5, §3
Reaction conditions: 50 mM Tris-HCl buffer (pH 7.5), 0.15 mM NADPH, and 2 μM KnmB1 or KnmB2. (e) NADPH oxidation of KnmB1 and variants. (f) NADPH oxidation of KnmB1 in the presence 24/32/36. (g) NADPH oxidation of KnmB1 and variants in the presence 24. Reaction conditions (e-g) for KnmB1 and their variants: 50 mM Tris-HCl buffer (pH 7.5), 0.15 mM NADPH, and 6 μM KnmB1 or variants, or 0.1 mM substrate 24/32/36. […]
2 μM KnmB2 or variants, or 0.1 mM substrate 24/32. […]
Source data are provided as a Source Data file. […]

**Q.** Which “hydrogen peroxide formation of KnmB2 (absorbance UV λ=560 nm), average value” (KnmB2 [1]; Fig. S131a, 1 mM NADPH, 16 μM KnmB2, 0.1 mM compound, 30 °C, 3 h, average of 3) does the source give for COc1cc(C(N)=O)nc(-c2csc(CCCCC(C)C)n2)c1 [Compound 32] here?
**A.** 0.3257

**Q.** And the “H2O2 generation, average value” (KnmB2 [1]; KnmB2+32, Time 0)?
**A.** 0.0000 µM

**Q.** And the “H2O2 generation, average value” (KnmB2 [1]; KnmB2+32, Time 1)?
**A.** 27.0071 µM

**Q.** What about the “H2O2 generation, average value” (KnmB2 [1]; KnmB2+32, Time 2) of the same compound?
**A.** 45.8172 µM

**Q.** What about the “H2O2 generation, average value” (KnmB2 [1]; KnmB2+32, Time 3) of the same compound?
**A.** 50.8645 µM

**Q.** What about the “H2O2 generation, average value” (KnmB2 [1]; KnmB2+32, Time 4) of the same compound?
**A.** 59.9799 µM

**Q.** And the “H2O2 generation, average value” (KnmB2 [1]; KnmB2+32, Time 5)?
**A.** 63.9929 µM

**Q.** What about the “H2O2 generation, average value” (KnmB2 [1]; KnmB2+32, Time 8) of the same compound?
**A.** 70.1572 µM

**Q.** What about the “H2O2 generation, average value” (KnmB2 [1]; KnmB2+32, Time 10) of the same compound?
**A.** 68.2817 µM

**Q.** What about the “H2O2 generation, average value” (KnmB2 [1]; KnmB2+32, Time 15) of the same compound?
**A.** 68.3920 µM

**Q.** What about the “H2O2 generation, average value” (KnmB2 [1]; KnmB2+32, Time 20) of the same compound?
**A.** 65.9649 µM

**Q.** What about the “H2O2 generation, average value” (KnmB2 [1]; KnmB2+32, Time 30) of the same compound?
**A.** 69.8125 µM

**Q.** And the “H2O2 generation, average value” (KnmB2 [1]; KnmB2+32, Time 60)?
**A.** 64.9169 µM

**Q.** And the “stimulation of the reaction of KnmB2 with NADPH” value (KnmB2 [2]; 0.15 mM NADPH, 2 μM KnmB2, 0.1 mM compound (Fig. S131i, j))?
**A.** could dramatically stimulate the reaction of KnmB2 with NADPH

**Q.** What about the “NADPH oxidation, average value” (KnmB2 [2]; KnmB2+32, Time 0) of the same compound?
**A.** 0.0000 µM

**Q.** And the “NADPH oxidation, average value” (KnmB2 [2]; KnmB2+32, Time 1)?
**A.** 36.1736 µM

**Q.** And the “NADPH oxidation, average value” (KnmB2 [2]; KnmB2+32, Time 2)?
**A.** 67.6313 µM

**Q.** What about the “NADPH oxidation, average value” (KnmB2 [2]; KnmB2+32, Time 3) of the same compound?
**A.** 89.9250 µM

**Q.** What about the “NADPH oxidation, average value” (KnmB2 [2]; KnmB2+32, Time 4) of the same compound?
**A.** 104.0193 µM

**Q.** What about the “NADPH oxidation, average value” (KnmB2 [2]; KnmB2+32, Time 5) of the same compound?
**A.** 113.9871 µM

**Q.** And the “NADPH oxidation, average value” (KnmB2 [2]; KnmB2+32, Time 8)?
**A.** 126.0986 µM

**Q.** What about the “NADPH oxidation, average value” (KnmB2 [2]; KnmB2+32, Time 10) of the same compound?
**A.** 129.3140 µM

**Q.** What about the “NADPH oxidation, average value” (KnmB2 [2]; KnmB2+32, Time 15) of the same compound?
**A.** 133.2797 µM

**Q.** And the “NADPH oxidation, average value” (KnmB2 [2]; KnmB2+32, Time 20)?
**A.** 134.8875 µM

**Q.** And the “NADPH oxidation, average value” (KnmB2 [2]; KnmB2+32, Time 30)?
**A.** 135.6377 µM

**Q.** And the “NADPH oxidation, average value” (KnmB2 [2]; KnmB2+32, Time 60)?
**A.** 137.7278 µM

**Q.** What about the “NADPH oxidation of KnmB1 in the presence of compound (replicates 1, 2, 3)” value (from here on “NADPH oxidation of KnmB1 … (replicates 1, 2, 3)”) (KnmB1; Time 0) of the same compound?
**A.** 0.0000 µM

**Q.** What about the “NADPH oxidation of KnmB1 in the presence of compound, average value” (from here on “NADPH oxidation of KnmB1 … average value”) (KnmB1; Time 0) of the same compound?
**A.** 0.0000 µM

**Q.** What about the “NADPH oxidation of KnmB1 … (replicates 1, 2, 3)” value (KnmB1; Time 1) of the same compound?
**A.** 1.5273 µM and 2.1061 µM and 2.0418 µM

**Q.** What about the “NADPH oxidation of KnmB1 … average value” (KnmB1; Time 1) of the same compound?
**A.** 1.8918 µM

**Q.** What about the “NADPH oxidation of KnmB1 … (replicates 1, 2, 3)” value (KnmB1; Time 2) of the same compound?
**A.** 1.8328 µM and 3.1029 µM and 1.2701 µM

**Q.** What about the “NADPH oxidation of KnmB1 … average value” (KnmB1; Time 2) of the same compound?
**A.** 2.0686 µM

**Q.** What about the “NADPH oxidation of KnmB1 … (replicates 1, 2, 3)” value (KnmB1; Time 3) of the same compound?
**A.** 2.5241 µM and 3.7621 µM and 2.2026 µM

**Q.** And the “NADPH oxidation of KnmB1 … average value” (KnmB1; Time 3)?
**A.** 2.8296 µM

**Q.** And the “NADPH oxidation of KnmB1 … (replicates 1, 2, 3)” value (KnmB1; Time 4)?
**A.** 3.7781 µM and 5.3698 µM and 2.4759 µM

**Q.** And the “NADPH oxidation of KnmB1 … average value” (KnmB1; Time 4)?
**A.** 3.8746 µM

**Q.** What about the “NADPH oxidation of KnmB1 … (replicates 1, 2, 3)” value (KnmB1; Time 5) of the same compound?
**A.** 4.0032 µM and 5.5627 µM and 2.3955 µM

**Q.** And the “NADPH oxidation of KnmB1 … average value” (KnmB1; Time 5)?
**A.** 3.9871 µM

**Q.** What about the “NADPH oxidation of KnmB1 … (replicates 1, 2, 3)” value (KnmB1; Time 8) of the same compound?
**A.** 4.4212 µM and 7.7974 µM and 3.6978 µM

**Q.** What about the “NADPH oxidation of KnmB1 … average value” (KnmB1; Time 8) of the same compound?
**A.** 5.3055 µM

**Q.** What about the “NADPH oxidation of KnmB1 … (replicates 1, 2, 3)” value (KnmB1; Time 10) of the same compound?
**A.** 5.8360 µM and 8.6174 µM and 5.4019 µM

**Q.** What about the “NADPH oxidation of KnmB1 … average value” (KnmB1; Time 10) of the same compound?
**A.** 6.6184 µM

**Q.** What about the “NADPH oxidation of KnmB1 … (replicates 1, 2, 3)” value (KnmB1; Time 15) of the same compound?
**A.** 7.9100 µM and 11.8971 µM and 10.3055 µM

**Q.** And the “NADPH oxidation of KnmB1 … average value” (KnmB1; Time 15)?
**A.** 10.0375 µM

**Q.** What about the “NADPH oxidation of KnmB1 … (replicates 1, 2, 3)” value (KnmB1; Time 20) of the same compound?
**A.** 9.0836 µM and 14.3891 µM and 16.4148 µM

**Q.** And the “NADPH oxidation of KnmB1 … average value” (KnmB1; Time 20)?
**A.** 13.2958 µM

**Q.** And the “NADPH oxidation of KnmB1 … (replicates 1, 2, 3)” value (KnmB1; Time 30)?
**A.** 13.7942 µM and 22.5402 µM and 24.0193 µM

**Q.** What about the “NADPH oxidation of KnmB1 … average value” (KnmB1; Time 30) of the same compound?
**A.** 20.1179 µM

**Q.** What about the “NADPH oxidation of KnmB1 … (replicates 1, 2, 3)” value (KnmB1; Time 40) of the same compound?
**A.** 17.5724 µM and 28.7299 µM and 26.9936 µM

**Q.** And the “NADPH oxidation of KnmB1 … average value” (KnmB1; Time 40)?
**A.** 24.4319 µM

**Q.** And the “NADPH oxidation of KnmB1 … (replicates 1, 2, 3)” value (KnmB1; Time 60)?
**A.** 24.1801 µM and 36.1576 µM and 36.4791 µM

**Q.** And the “NADPH oxidation of KnmB1 … average value” (KnmB1; Time 60)?
**A.** 32.2722 µM
